The text below walks through data of ChEMBL document CHEMBL5143714, “Discovery of BMS-986339, a Pharmacologically Differentiated Farnesoid X Receptor Agonist for the Treatment of Nonalcoholic Steatohepatitis” (J Med Chem, 2022).

For series [1], the target named is T1, Bile acid receptor (Mus musculus, UniProt Q60641).
T1 sequence (Q60641 whole entry): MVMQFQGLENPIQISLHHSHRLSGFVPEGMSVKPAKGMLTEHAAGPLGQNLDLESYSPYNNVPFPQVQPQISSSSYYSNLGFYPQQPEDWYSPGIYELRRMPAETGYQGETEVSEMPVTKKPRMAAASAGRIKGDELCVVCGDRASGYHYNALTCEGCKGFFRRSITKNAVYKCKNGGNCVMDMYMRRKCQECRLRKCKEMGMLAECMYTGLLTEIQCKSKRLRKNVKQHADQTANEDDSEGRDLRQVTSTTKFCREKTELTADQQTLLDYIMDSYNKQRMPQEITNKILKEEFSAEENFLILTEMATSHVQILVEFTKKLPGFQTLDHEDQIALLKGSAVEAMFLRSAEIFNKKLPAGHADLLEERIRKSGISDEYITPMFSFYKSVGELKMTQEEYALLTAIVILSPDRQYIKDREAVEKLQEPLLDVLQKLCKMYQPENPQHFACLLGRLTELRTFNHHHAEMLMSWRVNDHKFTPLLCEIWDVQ
The series can be described thus: Agonist activity at mouse LBD fused FXR in HEK293 cells incubated for 30 min by envision plate reader method. Type of series: cell-based.

Series [2] can be described thus: Metabolic stability in human liver microsome assessed as parent compound remaining at 1 mg/mL measured after 10 mins. Type of series: ADME. To be noted: liver microsomes, read-out: Stability.
Series [3] is described as follows: Metabolic stability in mouse liver microsome assessed as parent compound remaining at 1 mg/mL measured after 10 mins. To be noted: liver microsomes, read-out: Stability. It is filed as ADME.
Series [4] can be described thus: Metabolic stability in rat liver microsome assessed as parent compound remaining at 1 mg/mL measured after 10 mins. To be noted: liver microsomes, read-out: Stability. Type of series: ADME.
Series [5] concerns the target T2, Bile acid receptor (Homo sapiens, UniProt Q96RI1).
T2 sequence (Q96RI1 whole entry): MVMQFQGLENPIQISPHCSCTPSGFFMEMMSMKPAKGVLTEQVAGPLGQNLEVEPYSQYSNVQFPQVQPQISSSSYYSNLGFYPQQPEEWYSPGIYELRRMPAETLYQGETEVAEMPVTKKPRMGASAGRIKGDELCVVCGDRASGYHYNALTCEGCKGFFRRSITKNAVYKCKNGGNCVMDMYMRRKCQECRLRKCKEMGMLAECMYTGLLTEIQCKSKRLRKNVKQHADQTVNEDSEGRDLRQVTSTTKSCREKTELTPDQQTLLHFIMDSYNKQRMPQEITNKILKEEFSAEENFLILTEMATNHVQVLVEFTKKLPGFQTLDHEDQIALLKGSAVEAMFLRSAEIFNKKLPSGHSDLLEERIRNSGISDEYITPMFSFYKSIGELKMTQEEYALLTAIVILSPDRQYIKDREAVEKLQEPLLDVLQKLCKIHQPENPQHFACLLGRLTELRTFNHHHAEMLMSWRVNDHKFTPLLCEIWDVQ
The series can be described thus: Agonist activity at Gal4-fused human FXR in HEK293 cells incubated for 15 min by luciferase reporter assay. Type of series: cell-based. In general terms: Reporter assays use an easily measured gene product as a stand-in for the process of interest.

In series [6] the target is T3, Bile acid receptor (Homo sapiens) (UniProt Q96RI1).
T3 sequence (whole entry): T2 sequence (Q96RI1 whole entry)
The experiment in a line: Agonist activity at LBD-fused human FXR in HEK293 cells incubated for 30 min by envision plate reader method relative to GW2064. It is filed as cell-based.

The test system of series [7] is Bile acid receptor (Homo sapiens). The experiment in a line: Agonist activity at human FXR expressed in HEK293 cells coexpressing IBABP relative to GW2064. To be noted: filed as agonist.
The target of series [8] is T4, Bile acid receptor (Mus musculus) (UniProt Q60641).
T4 sequence (whole entry): T1 sequence (Q60641 whole entry)
The series can be described thus: Agonist activity at LBD-fused mouse FXR in HEK293 cells incubated for 30 min by envision plate reader method relative to GW2064. To be noted: filed as agonist. It is filed as cell-based.

Series [9] concerns Bile acid receptor (Homo sapiens). The series can be described thus: Agonist activity at human FXR expressed in HEK293 cells coexpressing human FGF19 incubated for 24 hrs by ELISA analysis relative to GW2064.
Series [10] is described as follows: Metabolic stability in rat liver microsome assessed as parent compound remaining at […] measured after 10 mins. Type of series: ADME. To be noted: liver microsomes, read-out: Stability.
A short description of series [11]: Metabolic stability in mouse liver microsome assessed as parent compound remaining at […] measured after 10 mins. To be noted: liver microsomes, read-out: Stability. Type of series: ADME.
A further series has as its target Cytochrome P450 2C9 (Homo sapiens, UniProt P11712). The experiment in a line: Inhibition of recombinant CYP2C9 (unknown origin) using fluorogenic substrate preincubated for 15 min followed by NADPH addition measured after 2 hrs by fluorescence method. It is filed as ADME.
Series [12] concerns the target T5, Nuclear receptor subfamily 1 group I member 2 (Homo sapiens, UniProt O75469).
T5 sequence (O75469 whole entry): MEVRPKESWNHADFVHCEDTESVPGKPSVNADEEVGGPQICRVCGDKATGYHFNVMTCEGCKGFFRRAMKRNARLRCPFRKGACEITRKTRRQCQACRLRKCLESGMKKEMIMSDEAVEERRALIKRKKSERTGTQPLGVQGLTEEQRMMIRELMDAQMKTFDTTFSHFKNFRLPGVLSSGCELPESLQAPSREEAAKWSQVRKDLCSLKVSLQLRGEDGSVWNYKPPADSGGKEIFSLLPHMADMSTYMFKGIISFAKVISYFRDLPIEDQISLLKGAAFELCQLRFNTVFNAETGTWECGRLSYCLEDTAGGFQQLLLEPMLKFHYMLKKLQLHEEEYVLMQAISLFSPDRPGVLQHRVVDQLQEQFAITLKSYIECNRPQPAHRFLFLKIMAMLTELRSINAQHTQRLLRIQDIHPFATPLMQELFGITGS
The experiment in a line: Transactivation of PXR (unknown origin). Type of series: ADME.

Series [13] is described as follows: Metabolic stability in human liver microsome assessed as parent compound remaining at […] measured after 10 mins. Type of series: ADME. To be noted: liver microsomes, read-out: Stability.
Series [14] concerns the target T5, Nuclear receptor subfamily 1 group I member 2. The experiment in a line: Transactivation of PXR (unknown origin) relative to refampicin. Type of series: ADME.
The next series addresses Cytochrome P450 2C19 (Homo sapiens, UniProt P33261). The series can be described thus: Inhibition of recombinant CYP2C19 (unknown origin) using fluorogenic substrate preincubated for 15 min followed by NADPH addition measured after 2 hrs by fluorescence method. It is filed as ADME.

Chain of Cytochrome P450 2C9 (P11712 whole entry): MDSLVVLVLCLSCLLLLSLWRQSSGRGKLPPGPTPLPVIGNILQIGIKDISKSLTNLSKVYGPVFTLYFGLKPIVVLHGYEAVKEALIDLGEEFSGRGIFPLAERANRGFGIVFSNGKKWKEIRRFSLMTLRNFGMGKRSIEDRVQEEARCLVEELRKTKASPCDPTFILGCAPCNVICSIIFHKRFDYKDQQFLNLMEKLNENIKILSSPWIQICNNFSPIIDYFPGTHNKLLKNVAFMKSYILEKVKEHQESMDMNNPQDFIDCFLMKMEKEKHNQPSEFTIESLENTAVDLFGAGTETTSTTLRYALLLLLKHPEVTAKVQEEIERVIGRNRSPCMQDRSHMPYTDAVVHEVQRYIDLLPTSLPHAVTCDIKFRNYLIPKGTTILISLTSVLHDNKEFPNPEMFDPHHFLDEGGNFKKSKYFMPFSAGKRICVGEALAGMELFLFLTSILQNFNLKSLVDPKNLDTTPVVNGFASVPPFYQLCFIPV
Chain of Cytochrome P450 2C19 (P33261 whole entry): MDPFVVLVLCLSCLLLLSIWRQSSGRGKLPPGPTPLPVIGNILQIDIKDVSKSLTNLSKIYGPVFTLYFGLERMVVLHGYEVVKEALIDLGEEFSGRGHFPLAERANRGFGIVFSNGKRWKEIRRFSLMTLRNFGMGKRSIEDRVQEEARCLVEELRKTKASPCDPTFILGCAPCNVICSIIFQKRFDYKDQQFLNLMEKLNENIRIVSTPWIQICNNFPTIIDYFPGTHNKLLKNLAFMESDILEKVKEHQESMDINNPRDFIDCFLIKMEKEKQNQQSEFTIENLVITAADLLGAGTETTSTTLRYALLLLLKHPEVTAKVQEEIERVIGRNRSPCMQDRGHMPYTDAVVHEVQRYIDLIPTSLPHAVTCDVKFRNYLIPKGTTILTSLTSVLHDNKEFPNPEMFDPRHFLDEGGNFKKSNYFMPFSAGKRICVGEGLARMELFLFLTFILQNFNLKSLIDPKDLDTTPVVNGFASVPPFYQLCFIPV

Broadly, the EC50 is the midpoint of the concentration-response curve. Regarding `O=C(O)c1cc(C(F)(F)F)c2cc(N3CCC4(C=C(c5c(-c6c(Cl)cncc6Cl)noc5C5CC5)C4)CC3)ccc2n1`, on Bile acid receptor [1], the midpoint of the response, the EC50, lay at 320 nM.

As to `COC(=O)/C=C/c1cccc(N(CC23CCC(c4ccc(OC)cc4)(CC2)CC3)C(=O)C2CCCCC2)c1`, the values for the remaining at 10 min in [2] and in series [3] were 60% and 35%, respectively. Moreover, the remaining at 10 min, 1 mg/mL in series [4] is 8%. The concentration for a half-maximal effect (EC50) at Bile acid receptor [5] stood at 142 nM.

The term Emax denotes the size of the effect at its maximum, as opposed to the concentration needed. For `COC(=O)/C=C/c1cccc(N(CC23CCC(c4ccc(N(C)C)cc4)(CC2)CC3)C(=O)C2CCCCC2)c1`, the remaining at 10 min in series [2] was determined as 90%; in [3], 77%. The Emax stood at 30% in [6], 42% in series [7], 279% in series [8] and 24% in series [9]. The remaining at 10 min, 1 mg/mL in series [4] was 32%. At Bile acid receptor [5], this molecule returned a concentration for a half-maximal effect (EC50) of 66 nM.

For `COC(=O)/C=C/c1cccc(N(CC23CCC(c4nc(C)no4)(CC2)CC3)C(=O)C2CCCCC2)c1`, the remaining at 10 min in series [2] was determined as 6%; in [3], 4%. The remaining at 10 min, 1 mg/mL in series [4] amounted to 31%. Further, the midpoint of the response at Bile acid receptor [5], the EC50, lay at 57 nM.

For orientation: IC50 means the midpoint of a concentration-inhibition curve. For the molecule `O=C(C1CCS(=O)(=O)CC1)N(CC12CCC(c3nc(C4CC4)no3)(CC1)CC2)c1cccc(-c2nc(C3CC3)no2)c1`, the remaining at 10 min amounted to 10% in series [10], 100% in series [11] and 100% in [13]. The EC50 at Bile acid receptor [5] came to 1090 nM; in series [12], 4000 nM. Further, the half-inhibitory concentration (IC50) on Cytochrome P450 2C9 and at Cytochrome P450 2C19 was 8000 nM each time. In series [14], this molecule had an Emax of 48%.
